# Experimental data taken from publication PMC8423723, “Regulation of cadherin dimerization by chemical fragments as a trigger to inhibit cell adhesion” (Communications Biology, 2021).
# Tests used:
# [1] = molecular target: T1, REC12 (P-cadherin monomer mutant) (Homo sapiens, UniProt P22223, INS0R); experiment: SPR, Scatchard analysis of equilibrium responses; type: binding
# T1 construct: gene CDH3; EC12 (EC1-EC2, residues 1-241) with Arg inserted at N terminus; biotinylated for chip capture; E. coli Rosetta2(DE3), SUMO tag cut with Ulp1; monomer
# T1 sequence (P22223 107-348, stated change not applied): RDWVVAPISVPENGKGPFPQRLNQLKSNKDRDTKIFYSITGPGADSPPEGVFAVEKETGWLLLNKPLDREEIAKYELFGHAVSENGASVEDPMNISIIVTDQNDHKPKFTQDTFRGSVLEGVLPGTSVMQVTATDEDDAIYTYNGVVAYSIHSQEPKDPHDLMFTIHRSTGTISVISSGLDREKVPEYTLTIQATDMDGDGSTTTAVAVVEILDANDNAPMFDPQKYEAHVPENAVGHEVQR
# EC12 (P-cadherin) = molecular target: T2, EC12 (P-cadherin) (Homo sapiens, UniProt P22223); experiment: SPR ABA assay, disruption of EC12 dimer on chip; type: binding; settings: 100 µM compound, 2 µM EC12 in solution A
# T2 construct: gene CDH3; EC1-EC2, residues 1-241, wild type; E. coli, SUMO cut; amine-coupled to CM5 chip
# T2 sequence (P22223 108-348): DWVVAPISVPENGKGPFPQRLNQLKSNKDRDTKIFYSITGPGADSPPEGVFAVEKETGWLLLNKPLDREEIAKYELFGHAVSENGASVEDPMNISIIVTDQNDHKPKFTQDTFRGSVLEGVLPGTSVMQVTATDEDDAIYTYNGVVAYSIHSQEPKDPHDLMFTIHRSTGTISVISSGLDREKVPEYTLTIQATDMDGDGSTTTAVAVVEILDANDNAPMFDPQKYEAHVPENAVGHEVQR
# [2] = molecular target: T3, REC12 (P-cadherin monomer mutant) (Homo sapiens, UniProt P22223); settings: pH 7.5, 25 °C, 3 mM CaCl2, 5% DMSO; construct printed only as P-cadherin
# T3 construct: gene CDH3
# T3 sequence (P22223 107-348, change not shown): as the sequence (P22223 107-348, stated change not applied) above
# [3] = molecular target: C-terminally His-tagged P-cadherin MEC12 (X dimer), on liposomes (human)
# [4] = molecular target: P-cadherin MEC12 (X dimer) K14A; experiment: SEC-MALS; settings: N = 1; parent: est. 33; read off a plot
molecule,measurement,setting,value
Cc1[nH]c2ccc(Cl)cc2c1CCN [Hit 1],Kd,[1],~916 µM
same,"SPR ABA assay, disruption of EC12 dimer on chip",EC12 (P-cadherin),These compounds bound to and disrupted the dimerization
NCCc1c[nH]c2ccccc12 [tryptamine],SPR direct binding,[2],only tryptamine bound to P-cadherin
"C-terminally His-tagged P-cadherin MEC12 (X dimer), on liposomes (domain or fragment)","kobs of liposome aggregation (optical density at 650 nm after addition of CaCl2, one-phase association), in the absence of Hit 1; no aggregation with EDTA or without MEC12",[3],0.0086
same,"kobs of liposome aggregation (optical density at 650 nm after addition of CaCl2, one-phase association), in the presence of Hit 1",[3],0.0033
P-cadherin MEC12 (X dimer) as used in SEC-MALS and HDX-MS K14A,other: molecular weight (SEC-MALS),[4],24 kDa
